From patent US20240301408A1, “MICRORNA 195 COMPOSITIONS AND METHODS FOR TREATING COGNITIVE IMPAIRMENT” (UNITED STATES GOVERNMENT AS REPRESENTED BY THE DEPARTMENT …, priority 2021, published 2024)

Experiments:
synaptojanin 1 (synj1) = assay: synj1 expression in cultured mouse neurons after AAV2 miRNA over-expression (western blot, qPCR); type: cell-based
Description: Mouse Neuronal and human iPSC culture. Primary cortical neurons were cultured (Zhu L et al., Proc Natl Acad Sci USA 2015, and Zhu L et al., J Biol Chem 2013) before being fixed and stained for confocal microscopy analysis (Zeiss LSM) (Berg I et al., Nat Protoc 2010). In some conditions, bovine serum albumin (BSA) or receptor-associated protein (RAP) was included in the cultured media (N=3/group). Alternatively, cultured neurons were transfected with adeno-associated virus 2 (AAV2)-containing miR-195-5p or miR-374 or scramble controls for 5 days before subjected to analysis. The ApoE4^+/+ and ApoE3^+/+ iPSCs were differentiated into neural progenitor cells (NPCs) by dual SMAD inhibition followed by neural rosette selection and forebrain-specific patterning by 20 ng/ml FGF2 exposure (Bowles K R et al., PloS one 2019, and Tcw J et al., Stem cell reports 2017). These NPCs were purified by MACS for CD271^−/CD133^+ (Bowles K R et al., PloS one 2019) and differentiated to cortical neurons (Bardy C et al., Proc Natl Acad Sci USA 2015, and Paquet D et al., Nature 2016) and a homogeneous population of astrocytes (Tcw J et al., Stem cell reports 2017, and Shaltouki A et al., Stem Cells 2013) before subjected to viral transfection and confocal microscopy analysis. Alternatively, mouse cortical neurons derived from ApoE4^+/+ and ApoE3^+/+ KI mice with synj1^+/+ or synj1^−/− genotypes were co-cultured with ApoE4^+/+ and ApoE3^+/+ iPSC-derived pure astrocytes. In some experiments, cultured neurons were transfected with AAV2-containing miR-195-5p, scramble controls or miR195 inhibitors that specifically prevent miR-195-5p binding to its target mRNA before co-culturing with iPSC-derived astrocytes. Cultured iPSC-derived neurons and astrocytes were then incubated with lysotracker red for various time periods before fixation and double-stained for pTau and a nuclear marker DAPI (blue) for confocal microscopy analysis (Zeiss). N=4-5/condition.
(§1) Brain and neuronal sample preparation and biochemical analysis. Snap-frozen mouse hemi-brains or cultured neurons were harvested in lysis buffer (Lane R F et al., The Journal of neuroscience 2010) and processed via step-wise solubilization (Lane R F et al., The Journal of neuroscience 2010, and Kawarabayashi T et al. The Journal of neuroscience 2001) followed by SDS-PAGE to determine levels of synj1, dyn1, holoAPP, and CTFs. Levels of Aβ42, Aβ40, pTau, Tau and ApoE were determined using high-sensitive ELISA kits. Some tissue was used for miRNA and RNA extraction followed by qPCR and RNA-seq analysis. Some animals underwent perfusion followed by brain tissue section for immunohistochemical staining of amyloid plaque, synj1 and pTau.
(§2) Statistical analysis. The sample sizes of each experiment were chosen based on power calculations derived from previous similar studies which allowed the determination of group sizes needed to achieve statistically significant results. […] Levels of miR-195-5p and miR-374 were normalized to U6 and RNU6B (internal controls) while synj1 mRNA normalized to GAPDH and 18s, and then expressed as Log2fold of changes when compared to controls. Levels of synj1, dyn1, pTau, Tau, and holoAPP were normalized to β-actin levels and expressed as a percentage of the control. Absolute Aβ42, Aβ40, pTau, Tau, and ApoE concentrations were quantitatively determined by ELISA and expressed as a percentage of the control. […] Pearson correlation coefficients were calculated to determine the linear relationship between the two variables. […]

phospho-Tau (pTau) = assay: brain pTau levels in ApoE KI mice after miR-195 over-expression; type: in vivo, mouse
Description: (§3) Stereotaxic injection and behavior studies. Eight to nine weeks old male and female ApoE3^+/+ and ApoE4^+/+ KI mice without 5×FAD background (N=19-23/group), or with 5×FAD background (N=15-17/group) were placed in the stereotaxic apparatus with AAV2 or scramble virus administered into the dorsal CA1 regions of bilateral hippocampal brain regions using pressure injection (Labonte B et al., Nat Med 2017, and Passini M A et al., The Journal of neuroscience 2006). Injection volumes (0.5-2.0 μl) were delivered over 10 min to avoid tissue damage. […]
(§4) Brain and neuronal sample preparation and biochemical analysis. […] Levels of Aβ42, Aβ40, pTau, Tau and ApoE were determined using high-sensitive ELISA kits. […]
as §2, with “analysis.” for “analysis. The sample sizes of each experiment were chosen based on power calculations derived from previous similar studies which allowed the determination of group sizes needed to achieve statistically significant results.”

Aβ / amyloid plaque = assay: brain oligomer Aβ42, soluble Aβ and amyloid plaque burden in EFAD mice after miR-195-5p over-expression; type: in vivo, mouse
Description: Stereotaxic injection and behavior studies. Eight to nine weeks old male and female ApoE3^+/+ and ApoE4^+/+ KI mice without 5×FAD background (N=19-23/group), or with 5×FAD background (N=15-17/group) were placed in the stereotaxic apparatus with AAV2 or scramble virus administered into the dorsal CA1 regions of bilateral hippocampal brain regions using pressure injection (Labonte B et al., Nat Med 2017, and Passini M A et al., The Journal of neuroscience 2006). Injection volumes (0.5-2.0 μl) were delivered over 10 min to avoid tissue damage. Six to nine months after viral delivery, mice were tested with the NOR task (Zhu L et al., Proc Natl Acad Sci USA 2015, Elder G A et al., J Neurotrauma 2012, and Howlett D R et al., Brain Res 2004). Mice were randomized for genotype and sex, and blinded throughout the behavior data collection and analysis, surgical manipulations, and sample collection.
as §1, with “Some animals underwent perfusion followed by brain tissue section for immunohistochemical staining of amyloid plaque, synj1 and pTau.” left out
as §2, with “analysis.” for “analysis. The sample sizes of each experiment were chosen based on power calculations derived from previous similar studies which allowed the determination of group sizes needed to achieve statistically significant results.”

holo-APP or BACE-1 = assay: brain holo-APP and BACE-1 levels in EFAD mice after miR-195-5p over-expression; type: in vivo; details: EFAD mouse brains
Description: as §3, §4
as §2, with “analysis.” for “analysis. The sample sizes of each experiment were chosen based on power calculations derived from previous similar studies which allowed the determination of group sizes needed to achieve statistically significant results.”

[1] = ApoE3+/+ neurons with miR-195 over-expression
[2] = ApoE4+/+ neurons with miR-195 over-expression
[3] = ApoE4+/+ and ApoE3+/+ FAD mouse brains

“UAGCAGCACAGAAAUAUUGGC (chemistry not given here) [miR-195-5p, over-expressed via AAV2-containing miR-195-5p from ABM Inc]” was tested, and the “synj1 mRNA levels” value (synaptojanin 1 (synj1); [1]) was −1.084±0.035 log2FC, the synj1 protein levels (synaptojanin 1 (synj1); [1]) was 70.9±21.2 % of controls and the “synj1 mRNA levels” value (synaptojanin 1 (synj1); [2]) was −7.751±0.043 log2FC. For the same sequence, the synj1 protein levels (synaptojanin 1 (synj1); [2]) was 48.0±9.84 % of controls, the synj1 protein levels (synaptojanin 1 (synj1); ApoE-/- hippocampal neurons in presence of ApoE4-CM, miRNA over-expression, N=4/group) was 62.87±4.48 % of controls and the pTau levels (phospho-Tau (pTau); ApoE3+/+ mice) was “Trends of reduction”. For the same sequence, the “brain phospho-Tau (pTau) levels” value (phospho-Tau (pTau); ApoE4+/+ KI mouse hippocampus, scramble controls 81.3) was 39.1 % of controls, the “amyloid plaque burden (plaque numbers and plaque density)” value (Aβ / amyloid plaque; [3]) was “dramatic reduction” and the “brain oligomer Aβ42 measured by ELISA” value (Aβ / amyloid plaque; [3]) was “dramatic reduction”. The “soluble Aβ40, Aβ42 levels” value (Aβ / amyloid plaque; E4FAD and E3FAD mouse brains) was “no significant changes” and the “holo-APP or BACE-1 levels” value (holo-APP or BACE-1) was “no significant changes”.
